What is called EC50 is the concentration needed to bring the measured effect to its halfway point.

Bounds are passed on as bounds.

EC50 data for 19 compounds are collected here from patent US20070213301A1 (ACHILLION PHARMACEUTICALS, INC., priority 2006, published 2007).

The experiment deals with HCV replicon. Kind of experiment: HCV replicon replication assay (NPTII ELISA). It is filed as cell-based, Hepatitis C virus (Huh-7 cells). The settings on record: Hepatitis C virus, Huh-7, 72 h, inhibition of HCV replicon replication in Huh-7 HCV replicon-containing cells, three days incubation, NPT level by ELISA; read-out: EC50. Summed up: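 Huh-7 cells carrying a Bartenschlager NPTII (neo) HCV replicon, treated 3 days at 37 °C with compound, generally 6 concentrations from 10 to 0.03 micromolar, in equal DMSO across wells. NPTII level, proportional to replication, read by capture ELISA on methanol:acetone-fixed cells; interferon alpha positive control; toxicity scored visually or by MTS.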
On the technique in general: Replicon systems follow genome replication, usually without infectious particles.

`O=C(O)CCC(=O)N(c1ccc(OCCCCc2cccs2)c(C(F)(F)F)c1)c1nc(-c2cccnc2)c(F)s1` [Compound 174, 4-((5-fluoro-4-(pyridin-3-yl)thiazol-2-yl)(4-(4-(thiophen-2-yl)butoxy)-3-(trifluoromethyl)phenyl)amino)-4-oxobutanoic acid]: the EC50 was less than 1 µM.
Next, `CCCCCCCCc1ccc(N(C(C)=O)c2nc(-c3cccnc3)c(F)s2)cc1C(F)(F)F` [Compound 175, N-(5-fluoro-4-(pyridin-3-yl)thiazol-2-yl)-N-(4-octyl-3-(trifluoromethyl)phenyl)acetamide]: less than 1 µM; `CCCCCCCCOc1ccc(N(C(N)=O)c2nc(-c3cccnc3)c(F)s2)cc1C(F)(F)F` [Compound 176, 1-(5-fluoro-4-(pyridin-3-yl)thiazol-2-yl)-1-(4-(octyloxy)-3-(trifluoromethyl)phenyl)urea]: less than 1 µM.
To `CCCCCCCCOc1ccc(N(C(C)=O)c2nc(-c3cccnc3)c(F)s2)cc1C(F)(F)F` [Compound 177, N-(5-fluoro-4-(pyridin-3-yl)thiazol-2-yl)-N-(4-(octyloxy)-3-(trifluoromethyl)phenyl)acetamide] belongs less than 1 µM.
`CCCCCCCCc1ccc(N(C(N)=O)c2nc(-c3cccnc3)c(F)s2)cc1C(F)(F)F` [Compound 178, 1-(5-fluoro-4-(pyridin-3-yl)thiazol-2-yl)-1-(4-octyl-3-(trifluoromethyl)phenyl)urea]: the EC50 is less than 1 µM.
To `CCCCCCCCc1ccc(N(C(=O)OCCN(C)C)c2nc(-c3cccnc3)c(F)s2)cc1C(F)(F)F` [Compound 179, 2-(dimethylamino)ethyl 5-fluoro-4-(pyridin-3-yl)thiazol-2-yl(4-octyl-3-(trifluoromethyl)phenyl)carbamate] belongs less than 1 µM; to `CCCCCCCCc1ccc(N(C(=O)C(N)C(C)C)c2nc(-c3cccnc3)c(F)s2)cc1C(F)(F)F` (stereo not shown) [Compound 180, 2-amino-N-(5-fluoro-4-(pyridin-3-yl)thiazol-2-yl)-3-methyl-N-(4-octyl-3-(trifluoromethyl)phenyl)butanamide], less than 1 µM.
To `CCCCCCCCc1ccc(N(C(=O)OCC[N+](C)(C)C)c2nc(-c3cccnc3)c(F)s2)cc1C(F)(F)F` [Compound 181] belongs less than 1 µM.
In the case of `CCCCCCCCc1ccc(N(C(=O)CC(C)(C)c2c(C)cc(C)cc2OP(=O)(O)O)c2nc(-c3cccnc3)c(F)s2)cc1C(F)(F)F` [Compound 182, 2-(4-((5-fluoro-4-(pyridin-3-yl)thiazol-2-yl)(4-octyl-3-(trifluoromethyl)phenyl)amino)-2-methyl-4-oxobutan-2-yl)-3,5-dimethylphenyl dihydrogen phosphate], the 50% effective concentration (EC50) lay in the range of 1 to 10 µM.
To `CCCCCCCCc1ccc(N(C(=O)OCCOP(=O)(O)O)c2nc(-c3cccnc3)c(F)s2)cc1C(F)(F)F` [Compound 183, 2-(phosphonooxy)ethyl 5-fluoro-4-(pyridin-3-yl)thiazol-2-yl(4-octyl-3-(trifluoromethyl)phenyl)carbamate] belongs less than 1 µM.
For the compound `CCCCCCCCc1ccc(N(C(=O)OCOC(=O)C(N)C(C)C)c2nc(-c3cccnc3)c(F)s2)cc1C(F)(F)F` (stereo not shown) [Compound 186, ((5-fluoro-4-(pyridin-3-yl)thiazol-2-yl)(4-octyl-3-(trifluoromethyl)phenyl)carbamoyloxy) methyl 2-amino-3-methylbutanoate], the EC50 was less than 1 µM.
`CCCCCCCCc1ccc(N(C(=O)OCOP(=O)(O)O)c2nc(-c3cccnc3)c(F)s2)cc1C(F)(F)F` [Compound 187, phosphonooxymethyl 5-fluoro-4-(pyridin-3-yl)thiazol-2-yl(4-octyl-3-(trifluoromethyl)phenyl)carbamate]: the concentration giving a half-maximal response (EC50) was less than 1 µM.
As to `CC/C=N/N(c1ccc(OCCCCCCCC)cc1)c1nc(-c2cccnc2)cs1` [Compound 188, (E)-2-(1-(4-(octyloxy)phenyl)-2-propylidenehydrazinyl)-4-(pyridin-3-yl)thiazolo], the concentration giving a half-maximal response (EC50) is less than 1 µM.
Regarding `C/C=N/N(c1ccc(OCCCCCCCC)c(C(F)(F)F)c1)c1nc(-c2cccnc2)cs1` [Compound 189, (E)-2-(2-ethylidene-1-(4-(octyloxy)-3-(trifluoromethyl)phenyl)hydrazinyl)-4-(pyridin-3-yl)thiazolo], the half-maximal effective concentration (EC50) is less than 1 µM.
Next, `C/C=N/N(c1ccc(OCCCCCCCC)cc1)c1nc(-c2cccnc2)cs1` [Compound 190, (E)-2-(2-ethylidene-1-(4-(octyloxy)phenyl)hydrazinyl)-4-(pyridin-3-yl)thiazolo]: less than 1 µM.
On to `C/C=N/N(c1ccc(OCCCCCCCC)c(C(F)(F)F)c1)c1nc(-c2cccnc2)c(F)s1` [Compound 191, (E)-2-(2-ethylidene-1-(4-(octyloxy)-3-(trifluoromethyl)phenyl)hydrazinyl)-5-fluoro-4-(pyridin-3-yl)thiazolo], for which the EC50 lay within 1 to 10 µM.
Next, `CCCCCCCCOc1ccc(N(COC(=O)C(C)(C)C)c2nc(-c3cccnc3)c(F)s2)cc1C(F)(F)F` [Compound 192, ((5-fluoro-4-(pyridin-3-yl)thiazol-2-yl)(4-(octyloxy)-3-(trifluoromethyl)phenyl)amino)methyl pivalate]: less than 1 µM; `NCCN(c1ccc(OCCCCc2cccs2)c(C(F)(F)F)c1)c1nc(-c2cccnc2)c(F)s1` [Compound 193, N1-(5-fluoro-4-(pyridin-3-yl)thiazol-2-yl)-N1-(4-(4-(thiophen-2-yl)butoxy)-3-(trifluoromethyl)phenyl)ethane-1,2-diamine]: 1 to 10 µM; `CCCCCCCCOc1ccc(N(C(C)=O)c2ncc(-c3cccnc3)s2)cc1C(F)(F)F` [Compound 194, N-(4-(octyloxy)-3-(trifluoromethyl)phenyl)-N-(5-(pyridin-3-yl)thiazol-2-yl)acetamide]: less than 1 µM.
